# Source: patent publication US9802941B2, “Compounds and methods for inhibiting histone demethylases” (Gilead Sciences, Inc., priority 2014, dated 2017)
# Like-named read-outs stand apart in the source and are kept apart here.
# Experiments:
# Format in all cases: biochemical
# KDM5B (PLU-1) = target: T1, KDM5B (PLU-1) (Homo sapiens, UniProt Q9UGL1); experiment: Histone lysine demethylase AlphaLISA assay, KDM5B
# T1 construct: BRIC; 1-809; E. coli; host or cells: E. coli
# T1 sequence (Q9UGL1 1-809): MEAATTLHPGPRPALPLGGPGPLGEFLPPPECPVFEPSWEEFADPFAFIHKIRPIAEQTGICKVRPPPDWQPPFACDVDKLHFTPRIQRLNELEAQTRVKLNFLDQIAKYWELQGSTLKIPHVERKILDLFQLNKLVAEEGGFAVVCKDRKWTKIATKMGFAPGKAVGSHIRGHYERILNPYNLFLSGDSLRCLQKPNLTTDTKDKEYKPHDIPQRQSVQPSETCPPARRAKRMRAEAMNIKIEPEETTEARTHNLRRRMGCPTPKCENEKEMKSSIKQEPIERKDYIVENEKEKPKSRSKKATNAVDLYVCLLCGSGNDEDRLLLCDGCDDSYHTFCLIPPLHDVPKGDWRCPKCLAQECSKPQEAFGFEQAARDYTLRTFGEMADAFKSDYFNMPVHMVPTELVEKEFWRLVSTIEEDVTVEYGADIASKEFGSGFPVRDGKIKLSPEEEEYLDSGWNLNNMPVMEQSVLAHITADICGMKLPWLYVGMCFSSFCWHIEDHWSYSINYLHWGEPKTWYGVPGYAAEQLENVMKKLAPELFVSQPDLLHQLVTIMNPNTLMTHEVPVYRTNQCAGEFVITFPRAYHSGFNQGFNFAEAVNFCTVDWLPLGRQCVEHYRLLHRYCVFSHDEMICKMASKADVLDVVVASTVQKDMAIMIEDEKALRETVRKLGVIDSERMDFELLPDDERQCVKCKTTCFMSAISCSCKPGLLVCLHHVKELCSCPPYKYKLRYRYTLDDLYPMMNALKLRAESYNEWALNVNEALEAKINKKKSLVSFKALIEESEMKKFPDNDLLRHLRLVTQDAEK
# Method in brief: (§1)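 Compounds preincubated 10 min with each demethylase in Hepes buffer (pH 7.4-8.0) containing Tween-20, 0.1% BSA and 5 μM Fe(II); substrate then added, room-temperature reaction. Read-out by AlphaLISA acceptor and streptavidin donor beads after incubation in the dark.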
# KDM2B (FBXL10) = target: T2, KDM2B (FBXL10) (Homo sapiens, UniProt Q8NHM5); experiment: Histone lysine demethylase AlphaLISA assay, KDM2B
# T2 construct: KDM2B; BPS,; 1-650; Bac; purchased BPS Bioscience, US; host or cells: baculovirus system
# T2 sequence (Q8NHM5 1-650): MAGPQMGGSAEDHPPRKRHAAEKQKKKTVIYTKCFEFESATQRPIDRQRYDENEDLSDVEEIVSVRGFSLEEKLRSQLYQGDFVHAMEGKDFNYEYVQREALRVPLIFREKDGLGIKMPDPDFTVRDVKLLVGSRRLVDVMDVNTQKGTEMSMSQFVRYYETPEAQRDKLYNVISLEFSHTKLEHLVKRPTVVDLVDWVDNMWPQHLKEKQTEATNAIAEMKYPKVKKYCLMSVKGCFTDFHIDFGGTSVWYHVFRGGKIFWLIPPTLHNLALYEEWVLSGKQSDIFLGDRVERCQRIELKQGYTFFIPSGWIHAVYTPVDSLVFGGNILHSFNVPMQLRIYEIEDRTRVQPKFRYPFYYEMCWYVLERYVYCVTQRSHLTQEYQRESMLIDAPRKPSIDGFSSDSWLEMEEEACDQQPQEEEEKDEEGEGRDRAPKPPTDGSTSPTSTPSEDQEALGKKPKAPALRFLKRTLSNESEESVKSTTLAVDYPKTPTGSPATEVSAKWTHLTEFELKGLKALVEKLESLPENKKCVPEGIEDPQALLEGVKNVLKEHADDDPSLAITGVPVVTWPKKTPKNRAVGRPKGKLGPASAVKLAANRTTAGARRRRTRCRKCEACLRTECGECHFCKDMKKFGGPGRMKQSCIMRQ
# Method in brief: as §1
# KDM4C (JMJD2C) = target: T3, KDM4C (JMJD2C) (Homo sapiens, UniProt Q9H3R0); experiment: Histone lysine demethylase AlphaLISA assay, KDM4C
# T3 construct: KDM4C; BRIC, Denmark; 1-349; E. coli; host or cells: E. coli
# T3 sequence (Q9H3R0 1-349): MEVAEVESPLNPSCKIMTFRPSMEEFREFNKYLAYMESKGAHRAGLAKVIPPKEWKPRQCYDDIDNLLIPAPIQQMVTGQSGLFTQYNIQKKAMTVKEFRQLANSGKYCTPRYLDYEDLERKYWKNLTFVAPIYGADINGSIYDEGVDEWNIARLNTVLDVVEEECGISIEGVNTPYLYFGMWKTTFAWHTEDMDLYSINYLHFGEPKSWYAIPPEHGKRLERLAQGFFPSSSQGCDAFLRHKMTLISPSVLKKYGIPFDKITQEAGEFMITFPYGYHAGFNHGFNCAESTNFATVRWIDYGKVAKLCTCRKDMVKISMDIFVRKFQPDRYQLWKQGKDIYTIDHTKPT
# Method in brief: as §1
# PHF8 (KDM7) = target: T4, PHF8 (KDM7) (Homo sapiens, UniProt Q9UPP1); experiment: Histone lysine demethylase AlphaLISA assay, PHF8
# T4 construct: KDM7 (PHF8); BRIC; 1-1322; Bac
# T4 sequence (Q9UPP1 37-440 limits assumed): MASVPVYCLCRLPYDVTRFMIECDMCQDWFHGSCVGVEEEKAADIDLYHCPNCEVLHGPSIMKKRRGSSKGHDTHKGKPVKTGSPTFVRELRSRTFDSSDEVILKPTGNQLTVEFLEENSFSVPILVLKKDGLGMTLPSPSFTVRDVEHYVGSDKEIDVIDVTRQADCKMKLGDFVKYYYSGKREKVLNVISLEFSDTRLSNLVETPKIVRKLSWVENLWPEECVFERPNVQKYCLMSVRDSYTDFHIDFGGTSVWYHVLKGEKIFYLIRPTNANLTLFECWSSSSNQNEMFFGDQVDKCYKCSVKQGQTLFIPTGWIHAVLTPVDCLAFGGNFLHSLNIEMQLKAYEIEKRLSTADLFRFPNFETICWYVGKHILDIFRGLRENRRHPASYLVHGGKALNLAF
# Method in brief: as §1
# KDM6A (UTX) = target: T5, KDM6A (UTX) (Homo sapiens, UniProt O15550); experiment: Histone lysine demethylase AlphaLISA assay, KDM6A
# T5 construct: KDM6A (UTX); BRIC; 919-1401; E. coli; host or cells: E. coli
# T5 sequence (O15550 919-1401): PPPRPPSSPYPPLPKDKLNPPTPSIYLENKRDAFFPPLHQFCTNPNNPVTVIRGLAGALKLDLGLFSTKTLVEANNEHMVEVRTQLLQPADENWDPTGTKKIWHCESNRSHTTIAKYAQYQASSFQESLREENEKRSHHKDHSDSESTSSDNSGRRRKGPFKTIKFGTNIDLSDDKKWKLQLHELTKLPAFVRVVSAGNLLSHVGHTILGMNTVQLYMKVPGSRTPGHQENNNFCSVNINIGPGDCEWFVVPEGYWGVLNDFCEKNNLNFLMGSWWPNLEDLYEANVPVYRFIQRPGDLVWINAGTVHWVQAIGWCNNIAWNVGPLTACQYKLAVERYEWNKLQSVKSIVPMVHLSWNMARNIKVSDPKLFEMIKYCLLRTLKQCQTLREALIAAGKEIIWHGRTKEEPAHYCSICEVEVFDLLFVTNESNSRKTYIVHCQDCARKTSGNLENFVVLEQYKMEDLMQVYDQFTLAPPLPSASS
# Procedure: The compounds of the application, or a pharmaceutically acceptable salt, or solvate, or prodrug thereof, are tested in an in vitro AlphaLISA assay. Enzymes are dissolved in enzyme buffer and incubated before they are added to DMSO solutions of compounds of the application, or a pharmaceutically acceptable salt, or solvate, or prodrug thereof, in enzyme buffer. The reaction mixture is then incubated for an additional period of time before substrate solution is added and then the resulting mixture again incubated. Acceptor beads and suspended Epigenetic Buffer from stock are added and the suspension is again incubated before a suspension of streptavidin donor beads in Epigenetic Buffer is added. After an additional period of incubation, the plates are read.
# The ability of compounds of the application to inhibit the histone lysine demethylase activity in vitro of different enzymes was determined.
# The reaction mixture was incubated for another 10 minutes before 5 μL of substrate solution was added and the resulting mixture was then incubated at room temperature. […] After incubation at room temperature in the dark, the plates were read.
# Enzyme Buffer: 50 mM Hepes (pH 7.4-8.0), 0.003-0.01% Tween-20, 0.1% BSA; 5 μM (NH4)2Fe(SO4)2.
# [1] = AlphaLISA assay, read-out: HDME Inhibition KDM5B (IC50)
# [2] = AlphaLISA, in vitro, read-out: HDME Inhibition KDM5B
# [3] = AlphaLISA, in vitro, read-out: HDME Inhibition KDM2B
# [4] = AlphaLISA assay, read-out: HDME Inhibition KDM4C (IC50)
# [5] = AlphaLISA, in vitro, read-out: HDME Inhibition KDM4C
# [6] = AlphaLISA assay, read-out: HDME Inhibition PHF8 (IC50)
# [7] = AlphaLISA, in vitro, read-out: HDME Inhibition PHF8
# [8] = AlphaLISA assay, read-out: HDME Inhibition KDM6A (IC50)
# [9] = AlphaLISA, in vitro, read-out: HDME Inhibition KDM6A
IC50 (KDM5B (PLU-1); [1]),IC50 (KDM5B (PLU-1); [2]),"IC50 (KDM2B (FBXL10); AlphaLISA assay, read-out: HDME Inhibition KDM2B (IC50))",IC50 (KDM2B (FBXL10); [3]),IC50 (KDM4C (JMJD2C); [4]),IC50 (KDM4C (JMJD2C); [5]),IC50 (PHF8 (KDM7); [6]),IC50 (PHF8 (KDM7); [7]),IC50 (KDM6A (UTX); [8]),IC50 (KDM6A (UTX); [9]),Structure (SMILES)
> 10 µM,> 10 µM,> 10 µM,> 10 µM,> 10 µM,> 10 µM,> 10 µM,> 10 µM,> 10 µM,> 10 µM,"Cc1cc(C(=O)O)cc(CN[C@H](CO)CC(C)C)n1 [Compound 23, 2-({[(2S)-1-hydroxy-4-methylpentan-2-yl]amino}methyl)-6-methylpyridine-4-carboxylic acid]"
> 10 µM,> 10 µM,–,5.43 µM,> 10 µM,> 10 µM,> 10 µM,> 10 µM,> 10 µM,> 10 µM,"Cc1cc(C(=O)O)cc(CNCCc2ncccc2CCC(C)C)n1 [Compound 20, 2-methyl-6-[({2-[3-(3-methylbutyl)pyridin-2-yl]ethyl}amino)methyl]pyridine-4-carboxylic acid]"
–,5.48 µM,–,1.54 µM,> 10 µM,> 10 µM,–,6.93 µM,> 10 µM,> 10 µM,"Cc1cc(C(=O)O)cc(CNCCc2ncccc2Br)n1 [Compound 11, 2-({[2-(3-bromopyridin-2-yl)ethyl]amino}methyl)-6-methylpyridine-4-carboxylic acid]"
> 10 µM,> 10 µM,–,1.14 µM,> 10 µM,> 10 µM,–,2.65 µM,> 10 µM,> 10 µM,"Cc1cc(C(=O)O)cc(CNCc2nnc(Cc3ccccc3)n2Cc2ccc(F)cc2)n1 [Compound 29, 2-{[({5-benzyl-4-[(4-fluorophenyl)methyl]-4H-1,2,4-triazol-3-yl}methyl)amino]methyl}-6-methylpyridine-4-carboxylic acid]"
> 10 µM,> 10 µM,–,0.431 µM,> 10 µM,> 10 µM,–,0.352 µM,> 10 µM,> 10 µM,"Cc1cc(C(=O)O)cc(CNCc2nccn2Cc2ccc(F)cc2)n1 [Compound 1, 2-{[({1-[(4-fluorophenyl)methyl]-1H-imidazol-2-yl}methyl)amino]methyl}-6-methylpyridine-4-carboxylic acid]"
> 10 µM,> 10 µM,–,5.68 µM,> 10 µM,> 10 µM,> 6 µM,> 6 µM,> 10 µM,> 10 µM,"CCCCc1cccnc1CCNCc1cc(C(=O)O)cc(C)n1 [Compound 15, 2-({[2-(3-butylpyridin-2-yl)ethyl]amino}methyl)-6-methylpyridine-4-carboxylic acid]"
> 10 µM,> 10 µM,–,5.35 µM,> 10 µM,> 10 µM,> 10 µM,> 10 µM,> 10 µM,> 10 µM,"CCCCCCCc1cccnc1CCNCc1cc(C(=O)O)cc(C)n1 [Compound 21, 2-({[2-(3-heptylpyridin-2-yl)ethyl]amino}methyl)-6-methylpyridine-4-carboxylic acid]"
> 10 µM,> 10 µM,–,0.117 µM,> 10 µM,> 10 µM,–,0.437 µM,> 10 µM,> 10 µM,"C/C=C\c1cnc(CNCc2cc(C(=O)O)cc(C)n2)n1Cc1ccc(F)cc1 [Compound 35, 2-{[({1-[(4-fluorophenyl)methyl]-5-[(1Z)-prop-1-en-1-yl]-1H-imidazol-2-yl}methyl)amino]methyl}-6-methylpyridine-4-carboxylic acid]"
> 10 µM,> 10 µM,–,3.23 µM,> 10 µM,> 10 µM,–,5.6 µM,> 10 µM,> 10 µM,"CCCCCCc1cccnc1CCNCc1cc(C(=O)O)cc(C)n1 [Compound 14, 2-({[2-(3-hexylpyridin-2-yl)ethyl]amino}methyl)-6-methylpyridine-4-carboxylic acid]"
